The results in this text go back to patent US11427606B2, “Azithromycin derivatives containing a phosphonium ion as anticancer agents” (Rising Tide Foundation, priority 2017, dated 2022).

One assay has as its system MDA-231 cancer cells. Put plainly: Inhibition of proliferation assay: cell confluence (IncuCyte imaging). It counts as cell-based. Conditions: compound at 10 uM; MDA-231 cells; IncuCyte images every 3 h over 4-5 d; relative confluence normalised to time zero. From the text:
Inhibition of Proliferation Assay
The confluence value is a surrogate for cell proliferation and growth. The value is expressed as a percent confluence, which represents the fraction of culture dish-surface that is occupied by cells. As the number of cells in the dish increases over time due to proliferation, so will their coverage of that surface increase. Expansion of the cell population on the cell culture-dish surface and confluence have mostly a linear relationship until the cells on the plate surface begin to reach saturation or maximum density.
Confluence is determined based on image analysis. Image based software can identify objects in the image field base on changes to pixel density in a grey scale image. The software can then assign a mask to those pixels within the object. Objects can be ‘gated’ out based on size and shape. To determine cell confluence, images of cells are first masked as objects. The surface area of the image that is masked is measured and compared to the total surface area of the culture dish surface to obtain a percent confluence.
MDA-231 cancer cells were obtained from ATCC. Cells were cultured in Dulbecco's Modified Eagle Medium (DMEM) supplemented with 10% Fetal Bovine Serum (FBS), 2 mM Glutamax, 1 mM Non Essential Amino Acid (NEAA) solution and 1 mM sodium pyruvate. […] Final DMSO concentrations were […]. Images were acquired with an IncuCyte Live Cell Imaging microscopy (Essen Bioscience) at every 3 h under cell culture conditions with 10× objective over 4-5 d. Cell confluence was calculated from one field of view per well using the IncuCyte in-built algorithm. Relative confluence values were obtained by normalising each value to the time zero value in each sample.
On to `CC[C@H]1OC(=O)[C@H](C)[C@@H](O[C@H]2C[C@@](C)(OC)[C@@H](O)[C@H](C)O2)[C@H](C)[C@@H](O[C@@H]2O[C@H](C)C[C@H](N(C)C)[C@H]2O)[C@](C)(O)C[C@@H](C)CN(C(=O)CCCCC[P+](c2ccccc2)(c2ccccc2)c2cccc(S(=O)(=O)O)c2)[C@H](C)[C@@H](O)[C@]1(C)O.F[P-](F)(F)(F)(F)F` [Example 2, {6-[(2R,3S,4R,5R,8R,10R,11R,12S,13S,14R)-11-{[(2S,3R,4S,6R)-4-(dimethylamino)-3-hydroxy-6-methyloxan-2-yl]oxy}-2-ethyl-3,4,10-trihydroxy-13-{[(2R,4R,5S,6S)-5-hydroxy-4-methoxy-4,6-dimethyloxan-2-yl]oxy}-3,5,8,10,12,14-hexamethyl-15-oxo-1-oxa-6-azacyclopentadecan-6-yl]-6-oxohexyl}diphenyl(3-sulfophenyl)phosphoniumhexafluorophosphate(V)], for which the “% Confluence” value is recorded as 131.8%.
On the same count and under the same terms, under `CC[C@H]1OC(=O)[C@H](C)[C@@H](O[C@H]2C[C@@](C)(OC)[C@@H](O)[C@H](C)O2)[C@H](C)[C@@H](O[C@@H]2O[C@H](C)C[C@H](N(C)C)[C@H]2O)[C@](C)(O)C[C@@H](C)CN(C)[C@H](C)[C@@H](O)[C@]1(C)O` [Azithromycin] stands 99.1%; under `CC[C@H]1OC(=O)[C@H](C)[C@@H](O[C@H]2C[C@@](C)(OC)[C@@H](O)[C@H](C)O2)[C@H](C)[C@@H](O[C@@H]2O[C@H](C)C[C@H](N(C)C)[C@H]2O)[C@](C)(O)C[C@@H](C)CN(C(=O)CCCCCCC[P+](c2ccc(F)cc2)(c2ccc(F)cc2)c2ccc(F)cc2)[C@H](C)[C@@H](O)[C@]1(C)O` [Example 3, {8-[(2R,3S,4R,5R,8R,10R,11R,12S,13S,14R)-11-{[(2S,3R,4S,6R)-4-(dimethylamino)-3-hydroxy-6-methyloxan-2-yl]oxy}-2-ethyl-3,4,10-trihydroxy-13-{[(2R,4R,5S,6S)-5-hydroxy-4-methoxy-4,6-dimethyloxan-2-yl]oxy}-3,5,8,10,12,14-hexamethyl-15-oxo-1-oxa-6-azacyclopentadecan-6-yl]-8-oxooctyl}tris(4-fluorophenyl)phosphonium hexafluorophosphate(V)], 97.7%; under `CC[C@H]1OC(=O)[C@H](C)[C@@H](O)[C@H](C)[C@@H](O[C@@H]2O[C@H](C)C[C@H](N(C)C)[C@H]2O)[C@](C)(O)C[C@@H](C)CN(CCCCCCCC[P+](c2ccc(OC)cc2)(c2ccc(OC)cc2)c2ccc(OC)cc2)[C@H](C)[C@@H](O)[C@]1(C)O` [Example 20], 14.8%.
On the same count and under the same terms, under `CC[C@H]1OC(=O)[C@H](C)[C@@H](O[C@H]2C[C@@](C)(OC)[C@@H](O)[C@H](C)O2)[C@H](C)[C@@H](O[C@@H]2O[C@H](C)C[C@H](N(C)C)[C@H]2O)[C@](C)(O)C[C@@H](C)CN(C(=O)CCCCCCC[P+](c2ccc(OC)cc2)(c2ccc(OC)cc2)c2ccc(OC)cc2)[C@H](C)[C@@H](O)[C@]1(C)O.F[P-](F)(F)(F)(F)F` [Example 5, {8-[(2R,3S,4R,5R,8R,10R,11R,12S,13S,14R)-11-{[(2S,3R,4S,6R)-4-(dimethylamino)-3-hydroxy-6-methyloxan-2-yl]oxy}-2-ethyl-3,4,10-trihydroxy-13-{[(2R,4R,5S,6S)-5-hydroxy-4-methoxy-4,6-dimethyloxan-2-yl]oxy}-3,5,8,10,12,14-hexamethyl-15-oxo-1-oxa-6-azacyclopentadecan-6-yl]-8-oxooctyl}tris(4-methoxyphenyl)phosphoniumhexafluorophosphate(V)] stands 7.8%; under `CC[C@H]1OC(=O)[C@H](C)[C@@H](O[C@H]2C[C@@](C)(OC)[C@@H](O)[C@H](C)O2)[C@H](C)[C@@H](O[C@@H]2O[C@H](C)C[C@H](N(C)C)[C@H]2O)[C@](C)(O)C[C@@H](C)CN(C(=O)CCCCCCCCCCC[PH](c2ccccc2)(c2ccccc2)C2CCOCC2)[C@H](C)[C@@H](O)[C@]1(C)O` [Example 35, {12-[(2R,3S,4R,5R,8R,10R,11R,12S,13S,14R)-11-{[(2S,3R,4S,6R)-4-(dimethylamino)-3-hydroxy-6-methyloxan-2-yl]oxy}-2-ethyl-3,4,10-trihydroxy-13-{[(2R,4R,5S,6S)-5-hydroxy-4-methoxy-4,6-dimethyloxan-2-yl]oxy}-3,5,8,10,12,14-hexamethyl-15-oxo-1-oxa-6-azacyclopentadecan-6-yl]-12-oxododecyl}(oxan-4-yl)diphenylphosphonium chloride], 97.2%; under “tris(4-chlorophenyl)({8-[(2R,3S,4R,5R,8R,10R,11R,12S,13S,14R)-11-{[(2S,3R,4S,6R)-4-(dimethylamino)-3-hydroxy-6-methyloxan-2-yl]oxy}-2-ethyl-3,4,10-trihydroxy-13-{[(2R,4R,5S,6S)-5-hydroxy-4-methoxy-4,6-dimethyloxan-2-yl]oxy}-3,5,8,10,12,14-hexamethyl-15-oxo-1-oxa-6-azacyclopentadecan-6-yl]-8-oxooctyl})phosphoniumhexafluorophosphate(V) [Example 4]”, 87.7%.
Turning to `CC[C@H]1OC(=O)[C@H](C)[C@@H](O[C@H]2C[C@@](C)(OC)[C@@H](O)[C@H](C)O2)[C@H](C)[C@@H](O[C@@H]2O[C@H](C)C[C@H](N(C)C)[C@H]2O)[C@](C)(O)C[C@@H](C)CN(C(=O)CCCCCCCCCCC[PH](CCOC)(c2ccccc2)c2ccccc2)[C@H](C)[C@@H](O)[C@]1(C)O` [Example 34, {12-[(2R,3S,4R,5R,8R,10R,11R,12S,13S,14R)-11-{[(2S,3R,4S,6R)-4-(dimethylamino)-3-hydroxy-6-methyloxan-2-yl]oxy}-2-ethyl-3,4,10-trihydroxy-13-{[(2R,4R,5S,6S)-5-hydroxy-4-methoxy-4,6-dimethyloxan-2-yl]oxy}-3,5,8,10,12,14-hexamethyl-15-oxo-1-oxa-6-azacyclopentadecan-6-yl]-12-oxododecyl}(2-methoxyethyl)diphenylphosphonium chloride], the “% Confluence” value amounted to 5.4%.
In the case of `CC[C@H]1OC(=O)[C@H](C)[C@@H](O)[C@H](C)[C@@H](O[C@@H]2O[C@H](C)C[C@H](N(C)C)[C@H]2O)[C@](C)(O)C[C@@H](C)CN(CCCCCCCC[P+](c2ccccc2)(c2ccccc2)c2ccc(N(C)C)cc2)[C@H](C)[C@@H](O)[C@]1(C)O.[I-]` [Example 21], the “% Confluence” value came out at 89.9%.
In the case of `CC[C@H]1OC(=O)[C@H](C)[C@@H](O[C@H]2C[C@@](C)(OC)[C@@H](O)[C@H](C)O2)[C@H](C)[C@@H](O[C@@H]2O[C@H](C)C[C@H](N(C)C)[C@H]2O)[C@](C)(O)C[C@@H](C)CN(C(=O)CCCCCCC[P+](c2cc(C)cc(C)c2)(c2cc(C)cc(C)c2)c2cc(C)cc(C)c2)[C@H](C)[C@@H](O)[C@]1(C)O` [Example 16, {8-[(2R,3S,4R,5R,8R,10R,11R,12S,13S,14R)-11-{[(2S,3R,4S,6R)-4-(dimethylamino)-3-hydroxy-6-methyloxan-2-yl]oxy}-2-ethyl-3,4,10-trihydroxy-13-{[(2R,4R,5S,6S)-5-hydroxy-4-methoxy-4,6-dimethyloxan-2-yl]oxy}-3,5,8,10,12,14-hexamethyl-15-oxo-1-oxa-6-azacyclopentadecan-6-yl]-8-oxooctyl}tris(3,5-dimethylphenyl)phosphonium hexafluorophosphate(V)], the “% Confluence” value turned out to be 10%.
Take `CC[C@H]1OC(=O)[C@H](C)[C@@H](O[C@H]2C[C@@](C)(OC)[C@@H](O)[C@H](C)O2)[C@H](C)[C@@H](O[C@@H]2O[C@H](C)C[C@H](N(C)C)[C@H]2O)[C@](C)(O)C[C@@H](C)CN(C(=O)CCCCCCCCCCC[PH](c2cccc(C)c2)(c2cccc(C)c2)c2cccc(C)c2)[C@H](C)[C@@H](O)[C@]1(C)O` [Example 30, {12-[(2R,3S,4R,5R,8R,10R,11R,12S,13S,14R)-11-{[(2S,3R,4S,6R)-4-(dimethylamino)-3-hydroxy-6-methyloxan-2-yl]oxy}-2-ethyl-3,4,10-trihydroxy-13-{[(2R,4R,5S,6S)-5-hydroxy-4-methoxy-4,6-dimethyloxan-2-yl]oxy}-3,5,8,10,12,14-hexamethyl-15-oxo-1-oxa-6-azacyclopentadecan-6-yl]-12-oxododecyl}tris(3-methylphenyl)phosphonium chloride]: the “% Confluence” value came to 4.4%.
Still for that read-out and setting: under `CC[C@H]1OC(=O)[C@H](C)[C@@H](O[C@H]2C[C@@](C)(OC)[C@@H](O)[C@H](C)O2)[C@H](C)[C@@H](O[C@@H]2O[C@H](C)C[C@H](N(C)C)[C@H]2O)[C@](C)(O)C[C@@H](C)CN(CCCCCC[P+](c2ccccc2-c2ccccc2N(C)C)(C2CCCCC2)C2CCCCC2)[C@H](C)[C@@H](O)[C@]1(C)O` [Example 10, dicyclohexyl({6-[(2R,3S,4R,5R,8R,10R,11R,12S,13S,14R)-11-{[(2S,3R,4S,6R)-4-(dimethylamino)-3-hydroxy-6-methyloxan-2-yl]oxy}-2-ethyl-3,4,10-trihydroxy-13-{[(2R,4R,5S,6S)-5-hydroxy-4-methoxy-4,6-dimethyloxan-2-yl]oxy}-3,5,8,10,12,14-hexamethyl-15-oxo-1-oxa-6-azacyclopentadecan-6-yl]hexyl})[2′-(dimethylamino)-[1,1′-biphenyl]-2-yl]phosphonium iodide] stands 4%.

The assay is the same for the next values; noted with them: compound at 100 uM; MDA-231 cells; IncuCyte images every 3 h over 4-5 d; relative confluence normalised to time zero.
In the case of `CC[C@H]1OC(=O)[C@H](C)[C@@H](O[C@H]2C[C@@](C)(OC)[C@@H](O)[C@H](C)O2)[C@H](C)[C@@H](O[C@@H]2O[C@H](C)C[C@H](N(C)C)[C@H]2O)[C@](C)(O)C[C@@H](C)CN(C)[C@H](C)[C@@H](O)[C@]1(C)O` [Azithromycin], the “% Confluence” value came out at 17%.
